Experimental data from US20220167645A1, “METHODS OF IMPROVING FISH FEED CONVERSION RATE AND SURVIVAL” (AQUINOVO LTD., priority 2019, published 2022).
Numbered stars: 1 amine (or outer) side, 2 acyl side, 3 side chain; on linkers, the order of the positions; unused ones are H or OH. Square brackets hold non-standard residues; d marks the D form. Suc = O=C(CCC(=O)[*:2])[*:1]; NMeV = CN[C@H](C(=O)O)C(C)C; βAla = NCCC(=O)O

Key:
Type in all cases: in vivo
Tilapia fish [1] = assay: Experiment #2: tilapia fed AN6-coated feed 60-150 dph (growth, biomass, FCR, intestine weight); details: 5 mgAN6/Kg feed from 60 dph for 150 days
Tilapia fish [2] = assay: Feed conversion rate (FCR) calculated over experiments #1, #2, #3
Method: (§1) In order to determine the efficiency of feed conversion into fish substance in experiments (#1, #2, #3), FCR values which reflect the amount of feed needed to grow a kilogram fish, were calculated for each period and for the entire fish growth period. In order to determine the amount of consumed feed, the amount of feed provided was measured daily for each tank and the leftovers were collected, weighted and subtracted from the total amount of feed. Dead fish were removed every day before each feeding and then counted and weighed for accurate calculation of feed intake and FCR. It is to be noted that high mortality can still influence FCR values since feed eaten by fish that have later died cannot be subtracted from the total feed consumed and on the other hand periodic total fish weight gained is underestimated (dead fish are not included). Three FCR values were calculated according to the following formulas:
Specifically, improved FCR is observed 30 to 90 days after treatment initiation and can last at least 100 days after treatment stopped.

Tilapia fish [3] = assay: Experiment #1: tilapia fed AN6-coated feed in two phases (growth, biomass, mortality, FCR); details: second phase, adult fish 195-263 dph; 50 days of 30 mg AN6/Kg feed; compared to control
Tilapia fish [4] = assay: Experiment #2: tilapia fed AN6-coated feed 60-150 dph (growth, biomass, FCR, intestine weight)
Method: MeM (powder, manufactured by Bern Aqua), Nanolis P1, P2 (pellet sizes of 0.8-1 mm, 1-1.5 mm, respectively, manufactured by Ocialis) and Tilaphi 1, 2 & 3 (pellet sizes of 1-1.5 mm, 2 mm, 3-5.5 mm, respectively, manufactured by Ocialis) were used as basic regular feed. The basic feed was coated according to the following general procedure: 9 ml or 3 ml of Tris-HCl solution (50 mM, pH=8.8) were diluted to 60 ml with distilled H2O. For AN6-containing feed preparation, desired amounts of AN6 peptide (a TK antagonist having the sequence Succ-Asp-Ser-D-Trp—N(Me)Val-βAla-Leu-Met-NH2, SEQ ID NO. 6) were dissolved in the Tris-HCl solution. Then, each of the various solutions was mixed with 3 Kg of basic feed pellets using an electric mixer. The peptide-feed mixtures where then dried either in oven at 40° C. for 24 hours or in drying drum for few hours to form coated pellets. The total amount of each feed was 3 Kg.
Tilapia fish (n=1440) have been raised from day 60 to day 119 post-hatch in indoor tanks and then transferred to outdoor tanks (120-150 dph) followed by cages in ponds (150-243 dph). The fish were fed to apparent satiation 2-4 times a day, for 90 days (60-150 dph) either with regular feed (Feed A, Group C, n=60 in 8 repeats); feed coated with AN6 peptide solution in ratio of 5 mg AN6/Kg feed (5 ppm, Feed B, Group D, n=60 in 8 repeats); or feed coated with AN6 peptide solution in ratio of 10 mg AN6/Kg feed (Feed C, Group E, n=60 in 8 repeats).
During the experimental period, the average fish weight was measured, and the daily growth rate was calculated by dividing the average weight gained in each measuring period by the number of days since the last measurement. […] However, from age 200 dph, a considerable jump in fish performance and FCR was observed, reaching a maximal level at the last measurement point (243 dph, +8.4% average weight, +18% weight gain, +10% total biomass; FIG. 1, experiment #2 and FIG. 3B). The effect on growth was evident even when considering differences in initial body weight (FIG. 2B).
as §1
At the end of the experiment described in example 3 (experiment #2), 6 fish from each cage/tank (3 females and 3 males, n=24 per treatment group) were sacrificed and whole intestine was removed and weighted.

Tilapia fish [5] = tested on: Tilapia fish
Description: At the end of each of the experiments described in examples 2, 3 and 5 (#1, #2, #3), a sample of fish from each treatment group was sacrificed and dissected for measurements of internal parts as indicated in Table 9.

[6] = 10 mg/Kg feed, Group E, last measurement point 243 dph, vs control
[7] = 10 ppm AN6, experiments 2 & 3, vs control

Substance: Succ-Asp-Ser- D-Trp -N(Me)Val-βAla-Leu-Met-NH2 (Suc-DS[dW][NMeV][βAla]LM-NH2; SMILES CSCC[C@H](NC(=O)[C@H](CC(C)C)NC(=O)CCNC(=O)[C@H](C(C)C)N(C)C(=O)[C@@H](Cc1c[nH]c2ccccc12)NC(=O)[C@H](CO)NC(=O)[C@H](CC(=O)O)NC(=O)CCC(=O)O)C(N)=O) [AN6]
- FCR (Tilapia fish [1]): improved FCR significantly
- growth (Tilapia fish [1]): not sufficient to improved growth
- FCR-growth relationship (Tilapia fish [2]; 5, 10 mg and 30 mg AN6/Kg feed in other cases (experiments #2 and #3), with decrease in feed intake): improved FCR which did not coincide with improved growth
- FCR in adult fish (Tilapia fish [2]; all AN6 peptide treatments, FIGS. 5A, 5B, 10, 11, 12): significantly improves FCR
- duration of improved FCR after treatment stopped (Tilapia fish [2]; in vivo): at least 100 days
- increase in average fish weight (Tilapia fish [3]): +6.84%
- increase in average weight gained (Tilapia fish [3]): +13%
- increase in fish average weight and growth rate (Tilapia fish [4]; 10 mg/Kg feed, Group E (fed 60-150 dph), age 95 to 165 dph, vs control): ~+3%
- average weight (Tilapia fish [4]; [6]): +8.4%
- total biomass (Tilapia fish [4]; [6]): +10%
- weight gain (Tilapia fish [4]; [6]): +18%
- number of fish in the upper 6.5th decile (Tilapia fish [4]; 10 mgAN6/Kg feed, Group E (control 2.8%)): 7.2%
- number of fish in the lower 2th decile (Tilapia fish [4]; 10 mgAN6/Kg feed, Group E (control 18.4%)): 13.2%
- weight gain of male and female populations analysed separately (Tilapia fish [4]; FIG. 4, 5 and 10 mg/Kg for 90 days (60-150 dph)): better performance than control
- ratio between intestine weight and fish weight (ISI) (Tilapia fish [4]; male fish treated with 10 mg AN6/Kg feed, end of experiment #2, vs control, FIG. 6): +21%
- female fillet ratio (Tilapia fish [5]; [7]): +3.38%
- male fillet ratio (Tilapia fish [5]; [7]): +5.6%
- gonad size and histology (Tilapia fish [5]; in vivo): No significant effect
- kidney, liver and fat weight and rates (Tilapia fish [5]; in vivo): no effect
